Earlier results, collected in publication PMC8288134, “Synthesis, potential antitumor activity, cell cycle analysis, and multitarget mechanisms of novel hydrazones incorporating a 4-methylsulfonylbenzene scaffold: a molecular docking study” (Journal of Enzyme Inhibition and Medicinal Chemistry, 2021).

Tests used:
Design in all cases: method as in https://dtp.cancer.gov/dtpstandard/dwindex/index.jsp
Conditions in all cases: reference drugs, ref https://dtp.cancer.gov/dtpstandard/dwindex/index.jsp; cited from earlier work
[1] = system: OVCAR-4
[2] = system: COLO 205
[3] = system: MALME-3M
[4] = system: NCI/ADR-RES
[5] = system: NCI-H23
[6] = system: HOP-92
[7] = system: SK-MEL-5
[8] = system: SW-620
[9] = system: CAKI-1
[10] = system: TK-10
[11] = system: T-47D
[12] = system: K-562
[13] = system: MCF7
[14] = system: IGROV1
[15] = system: PC-3
[16] = system: A498
[17] = system: HCC-2998
[18] = system: MDA-MB-231/ATCC

Structure (SMILES): CS(=O)(=O)c1ccc(C(=O)Nc2ccc(Cl)c(-c3ccccn3)c2)c(Cl)c1 [Vismodegib, vismodegib]
- GI50 [1]: 39.8 µM
- GI50 [2]: 39.8 µM
- GI50 [3]: 39.8 µM
- GI50 [4]: 31.6 µM
- GI50 [5]: 50.1 µM
- GI50 [6]: 25.1 µM
- GI50 [7]: 25.1 µM
- GI50 [8]: 63.1 µM
- GI50 [9]: 79.4 µM
- GI50 [10]: 63.1 µM
- GI50 [11]: 31.6 µM
- GI50 [12]: 31.6 µM
- GI50 [13]: 31.6 µM
- GI50 [14]: 100 µM
- GI50 [15]: 25.1 µM
- GI50 [16]: 31.6 µM
- GI50 [17]: 39.8 µM
- GI50 [18]: 19.9 µM
